How the values were obtained:
Experiment in all cases: relative viability (nuclei count vs DMSO), 5 days (fraction); higher = more cells survive
[1] = compound: CC[C@H](Nc1ncnc2[nH]cnc12)c1nc2cccc(F)c2c(=O)n1-c1ccccc1 [Idelalisib] + COc1cccc2cc(-c3nc([C@H]4CC[C@H](C(=O)O)CC4)n4ncnc(N)c34)[nH]c12 [OSI-027] (partner 0.5 µM)
Outline: (§1)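 Relative viability divides the nuclei count in treated wells by that in vehicle wells. Lung cancer cell lines were seeded in 1536-well plates, dosed by pin tool the next day, and fixed and stained after 5 days in one step with final 0.05% Triton X-100, 1% formaldehyde and 1 ug/ml Hoechst. Dosing was a single drug or a fixed anchor-drug dose plus five library-drug doses (not always all listed) in √10 steps, and values are medians of duplicate plates imaged at 4×.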

[2] = compound: CC[C@H](Nc1ncnc2[nH]cnc12)c1nc2cccc(F)c2c(=O)n1-c1ccccc1 [Idelalisib] + O=C(c1cc(Cc2n[nH]c(=O)c3ccccc23)ccc1F)N1CCN(C(=O)C2CC2)CC1 [Olaparib] (partner 8 µM)
Outline: as §1

[3] = compound: Nc1nc2[nH]cc(CCc3ccc(C(=O)N[C@@H](CCC(=O)O)C(=O)O)cc3)c2c(=O)[nH]1 [Pemetrexed] + Cc1nc(NC(=O)N2CCC[C@H]2C(N)=O)sc1-c1ccnc(C(C)(C)C(F)(F)F)c1 [Alpelisib] (partner 2 µM)
Outline: as §1

[4] = compound: Nc1nc2[nH]cc(CCc3ccc(C(=O)N[C@@H](CCC(=O)O)C(=O)O)cc3)c2c(=O)[nH]1 [Pemetrexed] + O=C(c1cc(Cc2n[nH]c(=O)c3ccccc23)ccc1F)N1CCN(C(=O)C2CC2)CC1 [Olaparib] (partner 8 µM)
Outline: as §1

Row | Cell Line | relative viability ([1]; first compound 0.04 µM) | relative viability ([1]; first compound 0.1265 µM) | relative viability ([1]; first compound 0.4 µM) | relative viability ([1]; first compound 1.265 µM) | relative viability ([1]; first compound 4 µM) | relative viability ([2]; first compound 0.04 µM) | relative viability ([2]; first compound 0.1265 µM) | relative viability ([2]; first compound 0.4 µM) | relative viability ([2]; first compound 1.265 µM) | relative viability ([2]; first compound 4 µM) | relative viability ([3]; first compound 0.002 µM) | relative viability ([3]; first compound 0.006325 µM) | relative viability ([3]; first compound 0.02 µM) | relative viability ([3]; first compound 0.06325 µM) | relative viability ([3]; first compound 0.2 µM) | relative viability ([4]; first compound 0.002 µM) | relative viability ([4]; first compound 0.006325 µM) | relative viability ([4]; first compound 0.02 µM) | relative viability ([4]; first compound 0.06325 µM) | relative viability ([4]; first compound 0.2 µM)
1 | NCI-H1915 | 0.699 | 0.633 | 0.627 | 0.739 | 0.53 | 0.252 | 0.241 | 0.276 | 0.264 | 0.27 | 0.995 | 1.04 | 1.03 | 1.09 | 1.1 | 0.243 | 0.277 | 0.274 | 0.238 | 0.274
2 | NCI-H1944 | 0.473 | 0.411 | 0.271 | 0.396 | 0.365 | 0.427 | 0.395 | 0.388 | 0.394 | 0.406 | 0.674 | 0.751 | 0.869 | 0.789 | 0.766 | 0.317 | 0.368 | 0.395 | 0.393 | 0.402
3 | NCI-H1975 | 0.819 | 0.764 | 0.61 | 0.917 | 0.429 | 0.787 | 0.835 | 0.741 | 0.778 | 0.615 | – | 0.63 | 0.704 | 0.535 | 0.4 | 0.645 | 0.748 | 0.765 | 0.677 | 0.323
4 | NCI-H1993 | 0.575 | 0.53 | 0.512 | 0.584 | 0.552 | 1.16 | 1.07 | 0.866 | 0.915 | 0.791 | 0.731 | 0.645 | 0.661 | 0.754 | 0.785 | 0.885 | 1.02 | 1.21 | 1.06 | 0.798
5 | NCI-H2009 | 0.642 | 0.646 | 0.515 | 0.509 | 0.557 | 0.639 | 0.712 | 0.672 | 0.74 | 0.516 | 1.15 | 1.13 | 1.22 | 1.12 | 1.08 | 0.648 | 0.689 | 0.714 | 0.651 | 0.661
6 | NCI-H2023 | 0.473 | 0.339 | 0.285 | 0.278 | 0.313 | 0.463 | 0.495 | 0.542 | 0.436 | 0.472 | 0.573 | 0.521 | 0.558 | 0.524 | 0.289 | 0.431 | 0.463 | 0.456 | 0.36 | 0.158
7 | NCI-H2085 | 0.738 | 1.01 | 0.521 | 0.725 | 0.325 | 0.642 | 0.743 | 0.767 | 0.741 | 0.677 | 0.91 | 0.952 | 1.07 | 0.951 | 0.952 | 0.755 | 0.74 | 0.802 | 0.806 | 0.789
8 | NCI-H2087 | 0.593 | 0.513 | 0.324 | 0.633 | 0.319 | 0.498 | 0.628 | 0.517 | 0.658 | 0.591 | 0.939 | 1.02 | 0.926 | 1.01 | 0.603 | 0.595 | 0.585 | 0.626 | 0.534 | 0.539
